Source: patent US20100240758A1, “EXTERNAL PREPARATION FOR PERCUTANEOUS ADMINISTRATION CONTAINING NONSTEROIDAL ANTI-INFLAMMATORY ANALGESIC” (Hisamitsu Pharmaceutical Co., Inc., priority 2003, published 2010)

What was measured:
[1] = test system: Balb/c mouse; experiment: In vivo photoallergy test 1 (refined Murine Local Lymph Node Assay, 3H-TdR uptake); conditions: UVA 20 J/cm^2, 3 days, toward KP group
Protocol: A KP photoallergy detection test was carried out by refining the Murine Local Lymph Node Assay (LLNA) proposed by the Interagency Coordinating Committee on the Validation of Alternative Methods (ICCVAM). That is, a Balb/c mouse (female, 8 to 12 weeks old) was used as a test animal, a solution of a test substance {4-tert-butyl-4′-methoxydibenzoylmethane (BM-DBM)} and 2% ketoprofen (KP) prepared in acetone—olive oil (4:1, v/v) was applied to the back of the pinna, and it was irradiated with UVA at 20 J/cm^2. This sensitization induction treatment was carried out for 3 days in succession. 5 days after starting the sensitization, 20 μCi per mouse of ^3H-methyl thymidine (^3H-TdR)/PBS solution was injected into the tail vein, and 5 hours later an auricular lymph node was removed. The removed lymph node was made into a single lymph cell suspension using a cell strainer, and after washing twice with PBS was then allowed to stand in a 5% trichloroacetic acid (TCA) solution at 4° C. overnight to thus make DNA precipitate. After the precipitate was suspended in 1 mL of 5% TCA solution, the radioactivity was measured using a liquid scintillation counter. The effect of the test substance in suppressing photoallergy due to KP was evaluated using as an index the degree of suppression of the increase in ^3H-TdR uptake by KP, that is, the ^3H-TdR uptake suppression rate (%) toward the KP group.

[2] = test system: Hartley white female guinea pig; experiment: In vivo photoallergy test 2 (skin photoallergy test, Adjuvant and Strip Method); conditions: 2% KP + 2% test substance, toward KP group
Protocol: A skin photoallergy test using a guinea pig was carried out by partially refining the Adjuvant and Strip Method of Sato et al., (The Nishinihon Journal of Dermatology, 42, 831-837 (1980)). That is, the back of the neck of a Hartley white female guinea pig (a group of 8 animals) was depilated, an adjuvant was administered to four corners of 2×2 cm, a 2% ethanol solution of ketoprofen (KP) or a solution of 2% KP+2% test substance {4-tert-butyl-4′-methoxydibenzoylmethane ([…])} was openly applied to the 2×2 cm area, and 1 hour later it was irradiated with UVA (10 J/cm^2). This sensitization induction treatment was carried out for 5 days in succession. 3 weeks after starting the sensitization, the back of the hip was depilated, the same solution as for the sensitization was openly applied to a 2×2 cm area, and 1 hour later it was irradiated with UVA (10 J/cm^2) to thus carry out a photoinduction. A skin reaction 24 and 48 hours after the irradiation was evaluated in accordance with the above-mentioned criteria of Sato et al. The effect of BM-DBM in suppressing photoallergy due to KP was evaluated by erythema and swelling suppression rates (%) toward the KP group.

[3] = test system: Balb/c mouse; experiment: In vivo phototoxicity test (auricular light irradiation, ear swelling due to ketoprofen); conditions: UVA 40 J/cm^2, 24 hours after irradiation, toward KP group
Protocol: The experiment below was carried out by partially refining the method of Gerberick et al., (Food Chem. Toxicol., 27, 813-819 (1989)). That is, a Balb/c mouse (female, 9 to 11 weeks old) was used as a test animal, each of the test substances {4-tert-butyl-4′-methoxydibenzoylmethane (BM-DBM), 2-ethylhexyl dimethoxybenzylidenedioxoimidazolidine propionate (DB-DIH), terephthalylidene-3,3′-dicamphor-10,10′-disulfonic acid (TP-DCS), n-hexyl 2-(4-diethylamino-2-hydroxybenzoyl)benzoate (DHB-BH)} and 2% ketoprofen (KP) were dissolved in ethanol and applied to the auricle, and it was irradiated with UVA at 40 J/cm^2. 24 hours after UVA irradiation, the ear thickness was measured, and an increase from the ear thickness prior to the start of the test was calculated. The effect in suppressing phototoxicity due to KP was evaluated for each test substance using as an index the degree of suppression of the increase in ear thickness due to KP, that is, the ear swelling suppression rate (%) toward the KP group.

[4] = test substance 0.5% with 2% KP in ethanol on auricle

**Q.** How did the “^3H-TdR Uptake Suppression Rate (%)” value ([1]; BM-DBM 0.06% with 2% KP in acetone-olive oil) turn out when `COc1ccc(C(=O)CC(=O)c2ccc(C(C)(C)C)cc2)cc1` [BM-DBM, 4-tert-butyl-4′-methoxydibenzoylmethane] was run?
**A.** 30%

**Q.** What about the “^3H-TdR Uptake Suppression Rate (%)” value ([1]; BM-DBM 0.13% with 2% KP in acetone-olive oil) of the same compound?
**A.** 51%

**Q.** What about the “^3H-TdR Uptake Suppression Rate (%)” value ([1]; BM-DBM 0.25% with 2% KP in acetone-olive oil) of the same compound?
**A.** 24%

**Q.** And the “^3H-TdR Uptake Suppression Rate (%)” value ([1]; BM-DBM 0.50% with 2% KP in acetone-olive oil)?
**A.** 94%

**Q.** What about the “^3H-TdR Uptake Suppression Rate (%)” value ([1]; BM-DBM 1.00% with 2% KP in acetone-olive oil) of the same compound?
**A.** 99%

**Q.** And the “Erythema/Swelling Suppression Rate (%) After 24 Hr” value ([2]; UVA 10 J/cm^2, 24 hours after photoinduction irradiation)?
**A.** 69%

**Q.** And the “Erythema/Swelling Suppression Rate (%) After 48 Hr” value ([2]; UVA 10 J/cm^2, 48 hours after photoinduction irradiation)?
**A.** 74%

**Q.** And the “Ear Swelling Suppression Rate (%)” value ([3]; test substance 0.1% with 2% KP in ethanol on auricle)?
**A.** 41%

**Q.** And the “Ear Swelling Suppression Rate (%)” value ([3]; test substance 0.3% with 2% KP in ethanol on auricle)?
**A.** 81%

**Q.** And the “Ear Swelling Suppression Rate (%)” value [3, 4]?
**A.** 98%

**Q.** For `CCCCC(CC)COC(=O)CCN1C(=O)NC(=Cc2ccc(OC)c(OC)c2)C1=O` (stereo not shown) [DB-DIH, 2-ethylhexyl dimethoxybenzylidenedioxoimidazolidine propionate], which “Ear Swelling Suppression Rate (%)” value [3, 4] is on record?
**A.** 34%

**Q.** With `CCCCCCOC(=O)c1ccccc1C(=O)c1ccc(N(CC)CC)cc1O` [DHB-BH, n-hexyl 2-(4-diethylamino-2-hydroxybenzoyl)benzoate] as the compound, how does the “Ear Swelling Suppression Rate (%)” value [3, 4] read?
**A.** 84%

**Q.** Which “Ear Swelling Suppression Rate (%)” value [3, 4] does the source give for `CC1(C)C2CCC1(CS(=O)(=O)O)C(=O)/C2=C\c1ccc(/C=C2/C(=O)C3(CS(=O)(=O)O)CCC2C3(C)C)cc1` [TP-DCS, terephthalylidene-3,3′-dicamphor-10,10′-disulfonic acid] here?
**A.** 65%
